System: panel of 484 cancer cell lines
Test: PRISM cancer cell line profiling, 5 days
Assay type: cell-based
Parameters: AUC: unit not given beside the values
Description: Cancer cell line profiling was performed using the Broad’s PRISM platform. Cell treatment and data analysis were performed as described in Yu et al[42]. Raw Luminex signal was converted to AUC values for each cell line as described. The resulting AUC profile for each compound was modeled against DepMap using the limma package in R[71]. Because hotspot mutation analysis was performed against DepMap, TP53 annotations in Fig. 6c,d are directly from DepMap.

CN1CCN(CCC(=O)Nc2ccc3c(=O)n(CC4(O)CCN(C(=O)[C@@H](CCCNC(=O)c5ccc6c(Cl)c7c(nc6c5)CCCC7)Cc5ccccc5)CC4)cnc3c2)CC1 [XL177A] was tested. Which AUC (RVH421_SKIN) did it give?
Its AUC is 0.7933.

And the AUC (S117_SOFT_TISSUE)?
The AUC was 0.8952.

And the AUC (SBC5_LUNG)?
Its AUC is 1.121.

And the AUC (SCABER_URINARY_TRACT)?
Its AUC is 0.8461.

What about the AUC (SCC25_UPPER_AERODIGESTIVE_TRACT) of the same compound?
The AUC was 0.7649.

And the AUC (SF126_CENTRAL_NERVOUS_SYSTEM)?
Its AUC is 1.059.

And the AUC (SF295_CENTRAL_NERVOUS_SYSTEM)?
The AUC was 1.367.

And the AUC (SF539_CENTRAL_NERVOUS_SYSTEM)?
Its AUC is 0.7901.

What about the AUC (SH4_SKIN) of the same compound?
The AUC was 0.8355.

And the AUC (SH10TC_STOMACH)?
Its AUC is 0.9409.

And the AUC (SIMA_AUTONOMIC_GANGLIA)?
The AUC was 1.153.

And the AUC (SJSA1_BONE)?
Its AUC is 0.9454.

And the AUC (SKES1_BONE)?
Its AUC is 1.123.

What about the AUC (SKHEP1_LIVER) of the same compound?
The AUC was 1.003.

What about the AUC (SKLU1_LUNG) of the same compound?
Its AUC is 1.145.

What about the AUC (SKMEL2_SKIN) of the same compound?
The AUC was 1.16.

What about the AUC (SKMEL3_SKIN) of the same compound?
The AUC was 1.119.

What about the AUC (SKMEL5_SKIN) of the same compound?
The AUC was 1.147.

And the AUC (SKMEL24_SKIN)?
The AUC was 1.297.

And the AUC (SKMEL30_SKIN)?
Its AUC is 0.992.

What about the AUC (SKMES1_LUNG) of the same compound?
The AUC was 0.9519.

What about the AUC (SKNAS_AUTONOMIC_GANGLIA) of the same compound?
Its AUC is 1.0969.

What about the AUC (SKNBE2_AUTONOMIC_GANGLIA) of the same compound?
The AUC was 1.099.

What about the AUC (SKOV3_OVARY) of the same compound?
The AUC was 0.9025.

And the AUC (SKUT1_SOFT_TISSUE)?
The AUC was 1.15.

And the AUC (SNB75_CENTRAL_NERVOUS_SYSTEM)?
Its AUC is 0.9344.

What about the AUC (SNGM_ENDOMETRIUM) of the same compound?
Its AUC is 1.144.

And the AUC (SNU46_UPPER_AERODIGESTIVE_TRACT)?
Its AUC is 1.075.

And the AUC (SNU61_LARGE_INTESTINE)?
The AUC was 1.293.

What about the AUC (SNU81_LARGE_INTESTINE) of the same compound?
The AUC was 1.343.

What about the AUC (SNU213_PANCREAS) of the same compound?
Its AUC is 0.7501.

What about the AUC (SNU245_BILIARY_TRACT) of the same compound?
The AUC was 1.4902.

What about the AUC (SNU308_BILIARY_TRACT) of the same compound?
Its AUC is 1.159.

And the AUC (SNU398_LIVER)?
Its AUC is 0.9557.

What about the AUC (SNU407_LARGE_INTESTINE) of the same compound?
The AUC was 0.9921.

And the AUC (SNU410_PANCREAS)?
The AUC was 1.104.

What about the AUC (SNU423_LIVER) of the same compound?
Its AUC is 0.9049.

And the AUC (SNU449_LIVER)?
Its AUC is 1.072.

And the AUC (SNU466_CENTRAL_NERVOUS_SYSTEM)?
The AUC was 0.6104.

And the AUC (SNU601_STOMACH)?
Its AUC is 1.062.

And the AUC (SNU668_STOMACH)?
The AUC was 0.8134.

What about the AUC (SNU685_ENDOMETRIUM) of the same compound?
Its AUC is 0.8198.

And the AUC (SNU719_STOMACH)?
Its AUC is 0.6005.

And the AUC (SNU738_CENTRAL_NERVOUS_SYSTEM)?
Its AUC is 0.9451.

What about the AUC (SNU761_LIVER) of the same compound?
Its AUC is 1.358.

What about the AUC (SNU840_OVARY) of the same compound?
Its AUC is 0.9553.

What about the AUC (SNU869_BILIARY_TRACT) of the same compound?
Its AUC is 1.237.

And the AUC (SNU886_LIVER)?
Its AUC is 1.085.

And the AUC (SNU1041_UPPER_AERODIGESTIVE_TRACT)?
The AUC was 1.036.

And the AUC (SNU1066_UPPER_AERODIGESTIVE_TRACT)?
The AUC was 1.434.

What about the AUC (SNU1076_UPPER_AERODIGESTIVE_TRACT) of the same compound?
The AUC was 1.032.

And the AUC (SNU1077_ENDOMETRIUM)?
Its AUC is 1.075.

What about the AUC (SNU1079_BILIARY_TRACT) of the same compound?
The AUC was 1.101.

And the AUC (SNU1105_CENTRAL_NERVOUS_SYSTEM)?
The AUC was 1.015.

And the AUC (SNU1196_BILIARY_TRACT)?
Its AUC is 1.095.

What about the AUC (SNU1214_UPPER_AERODIGESTIVE_TRACT) of the same compound?
The AUC was 0.7181.

And the AUC (SNUC2A_LARGE_INTESTINE)?
Its AUC is 1.088.

And the AUC (SNUC4_LARGE_INTESTINE)?
Its AUC is 1.036.

What about the AUC (SNUC5_LARGE_INTESTINE) of the same compound?
Its AUC is 1.147.

What about the AUC (SQ1_LUNG) of the same compound?
Its AUC is 0.9875.

What about the AUC (SUIT2_PANCREAS) of the same compound?
Its AUC is 0.9816.

What about the AUC (SW480_LARGE_INTESTINE) of the same compound?
Its AUC is 1.095.

And the AUC (SW579_THYROID)?
The AUC was 0.8837.

And the AUC (SW620_LARGE_INTESTINE)?
The AUC was 1.161.

And the AUC (SW780_URINARY_TRACT)?
The AUC was 0.8743.

And the AUC (SW837_LARGE_INTESTINE)?
The AUC was 1.139.

And the AUC (SW900_LUNG)?
Its AUC is 1.083.

What about the AUC (SW948_LARGE_INTESTINE) of the same compound?
The AUC was 1.148.

And the AUC (SW1088_CENTRAL_NERVOUS_SYSTEM)?
The AUC was 1.163.

What about the AUC (SW1271_LUNG) of the same compound?
The AUC was 1.0015.

And the AUC (SW1353_BONE)?
Its AUC is 0.7826.

And the AUC (SW1573_LUNG)?
Its AUC is 1.097.

And the AUC (SW1710_URINARY_TRACT)?
Its AUC is 0.9553.

What about the AUC (SW1990_PANCREAS) of the same compound?
The AUC was 0.9791.

And the AUC (T3M10_LUNG)?
The AUC was 1.003.

And the AUC (T24_URINARY_TRACT)?
The AUC was 1.033.

What about the AUC (T47D_BREAST) of the same compound?
The AUC was 1.05.

And the AUC (T98G_CENTRAL_NERVOUS_SYSTEM)?
The AUC was 0.9138.

And the AUC (TCCPAN2_PANCREAS)?
Its AUC is 1.167.

What about the AUC (TCCSUP_URINARY_TRACT) of the same compound?
The AUC was 1.301.

And the AUC (TE1_OESOPHAGUS)?
The AUC was 1.2696.

And the AUC (TE4_OESOPHAGUS)?
Its AUC is 1.044.

What about the AUC (TE5_OESOPHAGUS) of the same compound?
Its AUC is 0.9519.

What about the AUC (TE6_OESOPHAGUS) of the same compound?
Its AUC is 0.8165.

And the AUC (TE8_OESOPHAGUS)?
Its AUC is 1.003.

What about the AUC (TE9_OESOPHAGUS) of the same compound?
The AUC was 1.141.

And the AUC (TE10_OESOPHAGUS)?
Its AUC is 0.9335.

What about the AUC (TE11_OESOPHAGUS) of the same compound?
Its AUC is 1.05.

What about the AUC (TEN_ENDOMETRIUM) of the same compound?
The AUC was 0.8216.

And the AUC (TM31_CENTRAL_NERVOUS_SYSTEM)?
The AUC was 1.2102.

And the AUC (TM87_SOFT_TISSUE)?
The AUC was 1.188.

And the AUC (TOV21G_OVARY)?
The AUC was 0.5189.

And the AUC (TOV112D_OVARY)?
The AUC was 1.085.

What about the “mean diff. between TP53 functional WT and functional mutant populations (AUC)” value (TP53 annotation by functional scores of Giacomelli et al.) of the same compound?
The value was 0.072 ± 0.016.

What about the AUC (TT2609C02_THYROID) of the same compound?
Its AUC is 0.9464.

And the AUC (TT_OESOPHAGUS)?
Its AUC is 1.06.

And the AUC (TT_THYROID)?
The AUC was 0.8609.

What about the AUC (TUHR4TKB_KIDNEY) of the same compound?
Its AUC is 1.102.

And the AUC (U2OS_BONE)?
The AUC was 1.296.

What about the AUC (U118MG_CENTRAL_NERVOUS_SYSTEM) of the same compound?
Its AUC is 1.069.

What about the AUC (U251MG_CENTRAL_NERVOUS_SYSTEM) of the same compound?
Its AUC is 0.9403.

And the AUC (UACC62_SKIN)?
Its AUC is 0.9957.

What about the AUC (UACC257_SKIN) of the same compound?
The AUC was 0.801.

What about the AUC (UBLC1_URINARY_TRACT) of the same compound?
Its AUC is 0.854.

What about the AUC (UMUC1_URINARY_TRACT) of the same compound?
Its AUC is 0.8933.

And the AUC (UO31_KIDNEY)?
The AUC was 1.106.

What about the AUC (VMCUB1_URINARY_TRACT) of the same compound?
The AUC was 0.9786.

What about the AUC (VMRCRCW_KIDNEY) of the same compound?
Its AUC is 1.013.

And the AUC (VMRCRCZ_KIDNEY)?
The AUC was 1.099.

And the AUC (WM88_SKIN)?
Its AUC is 1.176.

And the AUC (WM793_SKIN)?
The AUC was 1.125.

What about the AUC (WM983B_SKIN) of the same compound?
The AUC was 1.093.

What about the AUC (WM1799_SKIN) of the same compound?
Its AUC is 0.5219.

And the AUC (WM2664_SKIN)?
The AUC was 0.9262.

What about the AUC (YAPC_PANCREAS) of the same compound?
The AUC was 1.218.

What about the AUC (YD8_UPPER_AERODIGESTIVE_TRACT) of the same compound?
Its AUC is 0.881.

What about the AUC (YD10B_UPPER_AERODIGESTIVE_TRACT) of the same compound?
Its AUC is 0.9499.

What about the AUC (YD15_SALIVARY_GLAND) of the same compound?
The AUC was 0.7713.

What about the AUC (YD38_UPPER_AERODIGESTIVE_TRACT) of the same compound?
The AUC was 0.8781.

And the AUC (YH13_CENTRAL_NERVOUS_SYSTEM)?
The AUC was 0.9484.

And the AUC (YKG1_CENTRAL_NERVOUS_SYSTEM)?
The AUC was 0.9563.

What about the AUC (ZR751_BREAST) of the same compound?
The AUC was 0.7595.
